In PMC11615764, “Discovery of Ketal‐Ester Ionizable Lipid Nanoparticle with Reduced Hepatotoxicity, Enhanced Spleen Tropism for mRNA Vaccine Delivery” (Advanced Science, 2024):
Entries after “also recorded” stand apart in the source; their conditions may differ. Like-named read-outs stand apart in the source and are kept apart here.

What was measured:
[1] = mouse, in vivo, iv, 0.5 mg/kg
[2] = LNP apparent pKa, TNS dye‐binding assay; type: physicochemical; settings: apparent pKa of the LNP
Description: Following the formulation methods of SpikeVax and Onpattro, all KEL LNPs were formulated with standard helper lipids: DSPC, Chol, and DMG‐PEG2000 at a molar ratio of Ionizable lipid/DSPC/Chol/DMG‐PEG2000 50:10:38.5:1.5, and at an ionizable lipid to RNA charge ratio (N/P) of 6.^[ [25] ^] Particle size and polydispersity index (PDI) were determined by dynamic light scattering (DLS), apparent pKa was assessed using 6‐(p‐toluidino)‐2‐naphthalenesulfonic acid (TNS) dye‐binding assay, while encapsulation efficiency was evaluated by a RiboGreen accessibility assay.
A series of buffers with pH values varying by 1 between 3.0 and 12.0 were prepared by titrating a solution containing 10 mM citrate, 10 mM phosphate, 10 mM borate, and 150 mM NaCl with 1.0 M HCl and 0.5 M NaOH. LNPs were diluted to 75 µM ionizable lipid, TNS to 6 µM in these buffers. Fluorescence intensity was determined using a Thermo Scientific 3020 spectrophotometer (325 nm excitation/435 nm emission). With the resulting fluorescence values, a sigmoidal plot of fluorescence versus buffer pH was created. The […] inflection point of this curve was the apparent pKa of the LNP formulation.

[3] = test system: 293T cells; settings: 50 µM
[4] = Encapsulation efficiency of LNPs, RiboGreen accessibility assay; type: physicochemical; settings: LNP: ionizable lipid/DSPC/Chol/DMG‐PEG2000 50:10:38.5:1.5, N/P 6
Description: (§1) Particle size and polydispersity index (PDI) were determined by dynamic light scattering (DLS), apparent pKa was assessed using 6‐(p‐toluidino)‐2‐naphthalenesulfonic acid (TNS) dye‐binding assay, while encapsulation efficiency was evaluated by a RiboGreen accessibility assay.
(§2) The sizes of the LNP formulations were assessed by DLS (Malvern Zetasizer Pro). Quant‐it RiboGreen assay (ThermoFisher Scientific, Cat# R11490) was used to measure the encapsulation efficiency of the LNP formulations. Briefly, LNPs treated by 1% (v/v) Triton X‐100 (Adamas‐beta) to disrupt LNP structure and release mRNA and untreated LNPs were diluted to a concentration below 2 µg mRNA/mL, then reacted with an equal volume of RiboGreen assay solution at a 200‐fold dilution. Standard curves were generated within the range between 0.0 to 2.0 µg mRNA/mL using a series of free mRNA solutions with or without 1% v/v Triton X‐100. The concentrations of free mRNA and total mRNA in the formulation were determined using bulk fluorescent reading (excitation: 490 nm, emission: 535 nm) of the sample against the corresponding standard curves. The amount of RNA loaded into the LNPs (internal RNA) was calculated by subtracting the values obtained in 1 x TE (external RNA) from 1 x TE + 1% Triton X‐100 (total RNA). Subsequently, the encapsulation efficiency was calculated as the percentage obtained by dividing the amount of internal RNA by the total RNA amount.

[5] = LNP particle size and PDI by dynamic light scattering; type: physicochemical; settings: LNP: ionizable lipid/DSPC/Chol/DMG‐PEG2000 50:10:38.5:1.5, N/P 6; DLS
Description: as §1, §2

[6] = test system: Balb/c mice; assay: In vivo firefly luciferase mRNA expression, whole‐body bioluminescence; design: species or system mouse; settings: mLuci LNP, female Balb/c mice; for delivery potency (whole‐body luciferase), IV and IM: IV 1 mg/kg and IM 0.25 mg/kg; for whole‐body luciferase activity after IM administration: IM 0.25 mg/kg, compared with DLin‐MC3‐DMA LNP; for whole‐body luciferase activity after IV administration: IV 1 mg/kg
Description: Subsequently, the formulated KEL LNPs were evaluated for their in vivo delivery efficiency (Figure 1C). Wild‐type female Balb/c mice were administered with a single dose of LNPs containing firefly luciferase mRNA (mLuci) via IV or intramuscular (IM) injection (Figure 2A,B), followed by whole‐body luciferase activity assay. A control group receiving DLin‐MC3‐DMA‐based LNP was included in each experiment to facilitate comparisons across experiments.
Balb/c mice were injected intramuscularly (0.25 mg k^−1g) or intravenously (1 mg k^−1g) with LNPs. At 6 or 24 hrs post‐administration, mice were injected intraperitoneally with 150 mg k^−1g of D‐luciferin monosodium salt (ThermoFisher) and imaged using the in vivo imaging system (IVIS Lumina LT Series III) 10 min post intraperitoneally. 1 × PBS (IM: 50 µL; IV: 200 µL) was injected as a negative control.

[7] = Biodegradability of LNPs after IV injection, ionizable lipid in plasma by LC‐MS/MS; settings: mLuci LNP IV 0.5 mg/Kg, mice
[8] = test system: human liver microsomes; assay: Microsomal stability of ionizable lipids, human; settings: 0.5 mg protein/mL, NADPH and UDPGA
[9] = test system: 293T cells; assay: Cell Counting Kit‐8 cytotoxicity assay; settings: lipid alone at 50 µM, CCK8, 48 h

pKa [2]	Encapsulation efficiency (%) [4] [%]	PDI [5]	Size (nm) [5] [nm]	Compound	decline of ionizable lipid level in plasma during the first 6 hrs [1]	cell viability [3]	delivery potency (whole‐body luciferase), IV and IM [6]	whole‐body luciferase activity after IM administration [6]	whole‐body luciferase activity after IV administration [6]	whole‐body luciferase activity after IV administration ([6]; 1 mg/kg)	decline of ionizable lipid level in plasma during the first 6 hrs [7]	ionizable lipid level in plasma after 12 hrs [7] [ng/mL]	ionizable lipid level in plasma after 24 hrs [7]	remaining after 120 minutes [8]	cell viability [9]
6.88	92.3	0.03	70.27	CCCCCCCCCCCOC(=O)CCCCCC1(CCCCCCCC(=O)OC(CCCCCCCC)CCCCCCCC)OCC(CCN(C)C)O1 (stereo not drawn) [KEL2]			higher potency than KEL1 and KEL4; also recorded: higher potency than LNPs with either double branched tails (KEL10) or double linear tails (KEL11)	significantly higher levels of luciferase activity than the DLin‐MC3‐DMA LNP							
6.86	89.3	0.16	98.15	CCCCCCCCCCCOC(=O)CCCCCC1(CCCCCCCC(=O)OC(CCCCCCCC)CCCCCCCC)OCC(CCCN(C)C)O1 (stereo not drawn) [KEL3]			higher potency than KEL1 and KEL4	significantly higher levels of luciferase activity than the DLin‐MC3‐DMA LNP							
6.86	96.5	0.07	78.44	CCCCCCCCCCCOC(=O)CCCCCC1(CCCCCCCC(=O)OC(CCCCCCCC)CCCCCCCC)OCC(CCN(C)CC)O1 (stereo not drawn) [KEL5]											
6.17	97.6	0.03	71.68	CCCCCCCCCCCOC(=O)CCCCCC1(CCCCCCCC(=O)OC(CCCCCCCC)CCCCCCCC)OCC(CCN(CC)C(C)C)O1 (stereo not drawn) [KEL8]					lower potency than those with pKa of 6.7‐7.0						
7.03	98.2	0.05	125.0	CCCCCCCCCCCNC(=O)CCCCCC1(CCCCCCCC(=O)NC(CCCCCCCC)CCCCCCCC)OCC(CCN(C)C)O1 (stereo not drawn) [KEL9]			significantly reduced delivery potency; also recorded: lower delivery efficiency for both IV and IM administration								
6.88	93.3	0.34	110.3	CCCCCCCCCCCOC(=O)CCCCCC1(CCCCCC(=O)OCCCCCCCCCCC)OCC(CCN(C)C)O1 (stereo not drawn) [KEL11]			further decrease in potency compared to KEL10								
6.93	94.9	0.04	89.54	CCCCCCCCCCC(=O)OCCCCCCC1(CCCCCCCC(=O)OC(CCCCCCCC)CCCCCCCC)OCC(CCN(C)C)O1 (stereo not drawn) [KEL12]			higher potency than LNPs with either double branched tails (KEL10) or double linear tails (KEL11)	significantly higher luciferase activity than DLin‐MC3‐DMA LNP	significantly higher luciferase activity than DLin‐MC3‐DMA LNP by IV						

Further lines, the compound ahead of its results:

Compound	pKa [2]	Encapsulation efficiency (%) [4] [%]	PDI [5]	Size (nm) [5] [nm]	decline of ionizable lipid level in plasma during the first 6 hrs [1]	cell viability [3]	delivery potency (whole‐body luciferase), IV and IM [6]	whole‐body luciferase activity after IM administration [6]	whole‐body luciferase activity after IV administration [6]	whole‐body luciferase activity after IV administration ([6]; 1 mg/kg)	decline of ionizable lipid level in plasma during the first 6 hrs [7]	ionizable lipid level in plasma after 12 hrs [7] [ng/mL]	ionizable lipid level in plasma after 24 hrs [7]	remaining after 120 minutes [8]	cell viability [9]
CCCCC/C=C\C/C=C\CCCCCCCCC(CCCCCCCC/C=C\C/C=C\CCCCC)OC(=O)CCCN(C)C [DLin‐MC3‐DMA, reference compound]	6.33	96.7	0.15	72.70	reduced faster than (4S)‐KEL12	over 80%									
CCCCCCCCCCCOC(=O)CCCCCC1(CCCCCCCC(=O)OC(CCCCCCCC)CCCCCCCC)OCC(CN(C)C)O1 (stereo not drawn) [KEL1]	5.72	95.0	0.12	76.72			lower delivery efficiency for both IV and IM administration								
CCCCCCCCCCCOC(=O)CCCCCC1(CCCCCCCC(=O)OC(CCCCCCCC)CCCCCCCC)OCC(CCCCN(C)C)O1 (stereo not drawn) [KEL4]	7.40	91.0	0.16	118.1			considerable potency								
CCCCCCCCCCCOC(=O)CCCCCC1(CCCCCCCC(=O)OC(CCCCCCCC)CCCCCCCC)OCC(CCN(CC)CC)O1 (stereo not drawn) [KEL6]	6.89	97.5	0.06	80.34											
CCCCCCCCCCCOC(=O)CCCCCC1(CCCCCCCC(=O)OC(CCCCCCCC)CCCCCCCC)OCC(CCN(C)CCC)O1 (stereo not drawn) [KEL7]	5.91	97.2	0.10	61.73			lower delivery efficiency for both IV and IM administration								
CCCCCCCCC(CCCCCCCC)OC(=O)CCCCCCCC1(CCCCCCCC(=O)OC(CCCCCCCC)CCCCCCCC)OCC(CCN(C)C)O1 (stereo not drawn) [KEL10]	6.09	96.5	0.10	69.23			potency diminished compared to KEL2		lower potency than those with pKa of 6.7‐7.0						
CCCCCCCCCCC(=O)OCCCCCCC1(CCCCCCCCOC(=O)C(CCCCCCCC)CCCCCCCC)OCC(CCN(C)C)O1 (stereo not drawn) [KEL13]	6.44	91.0	0.09	99.68			higher potency than LNPs with either double branched tails (KEL10) or double linear tails (KEL11)	significantly higher luciferase activity than DLin‐MC3‐DMA LNP		lower potency than those with pKa of 6.7‐7.0					
CCCCCCCCCCCOC(=O)CCCCCN(CCO)CCCCCCCC(=O)OC(CCCCCCCC)CCCCCCCC [SM‐102]											reduced faster than (4S)‐KEL12	< 10	undetectable	about 80%	over 80%
